Measurements taken from patent publication US10842794B2, “Use of Sigma-1 receptor agonist compounds” (MTA TÁMOGATOTT KUTATÓCSOPORTOK IRODÁJA, priority 2014, dated 2020).

Columns and labels:
[1] = system: Streptozotocin induced type 1 diabetic rats; test: Diabetic rat kidney: Sirius Red staining of ECM components; format: in vivo; conditions: long term 7-weeks fluvoxamine treatment
NRK49F myofibroblasts = conditions: all applied concentrations, even the smallest 1 μM
Description: In 6-well plates of NRK49F myofibroblasts (6×10^6 cells/well) TGF-β (1 nM) induced production of fibrillar components of the extracellular matrix was measured by Sirius Red staining. To investigate the effect of S1R agonist compounds a group of cells was treated for 48 hours with the various S1R agonists. Solvent treated cells served as controls. (Bars represent mean±SEM)
To investigate the deposition of fibrillar collagen Sirius Red staining was performed. 48 hours after the treatment with TGF-β and said compounds the NRK-49F cells were incubated for 10 minutes with Kahle fixative solution. 0.1% Sirius Red (Direct Red 80, Sigma-Aldrich) in 1.2% picric acid was added for each well and plates were incubated for 30 minutes at RT. The unconnected dye molecules were washed with distilled water. The bound Sirius Red dye was eluated with 0.1 M NaOH solution, absorbance was recorded at 540 nm in a Hidex Chameleon Microplate Reader (Triathler, Plate Chameleion, 300SL Lablogic Systems, Inc., Brandon, Fla., USA) used MikroWin program. Vehicle treated cells served as controls.

[2] = system: mice with unilateral ureter obstruction (UUO); test: Mice model of UUO: αSMA protein in kidney, western blot; format: in vivo; conditions: one week fluvoxamine treatment 20 mg/bwkg/day
[3] = system: Streptozotocin induced type 1 diabetic rats; test: Diabetic rat kidney: PAS staining, mesangial matrix expansion; format: in vivo
[4] = system: Streptozotocin induced type 1 diabetic rats; test: Diabetic rat kidney: fibronectin staining; format: in vivo; conditions: fluvoxamine 20 mg/bwkg/day for 2 weeks from the 5th week of diabetes
[5] = system: Streptozotocin induced type 1 diabetic rats; test: Rat model of streptozotocin induced diabetic nephropathy: metabolic and renal parameters; format: in vivo; conditions: for Blood Creatinine / Blood Glucose / Blood Urea Nitrogen / FeNa / Fructosamine / GFR / Urinary albumin excretion: Mean±SEM
Description: All substances were purchased from Sigma-Aldrich Ltd. (Budapest, Hungary). Diabetes was induced in male Wistar rats by 65 mg/bwkg streptozotocin (STZ) i.v. (dissolved in 0.1 M citrate buffer; pH 4.5). Animals were considered diabetic if blood glucose concentrations increased to 15 mmol/L within 72 h after STZ injection and remained elevated. Animals were randomly divided into groups (n=10-12/group) and received by per os (i) fluvoxamine (20 mg/bwkg/day) for 7 weeks; (ii) fluvoxamine (20 mg/bwkg/day) for 2 weeks from the 5th week of diabetes, (iii) fluvoxamine (2 mg/bwkg/day) for 2 weeks from the 5th week of diabetes; or (iv) vehicle (isotonic saline). […] Non-diabetic age-matched control animals were injected with citrate buffer and sacrificed after 7 weeks (n=8-10/group).
Before and during and at the end of treatment period rats were placed into metabolic cages to collect 24-hour urinary samples. After 2 weeks of treatment all rats were anesthesized, blood and urinary samples were collected and the kidneys were removed, weighed and a section fixed in formalin (4%, pH=7.4) for histology and the remained immediately snap-frozen for further investigations.
Serum metabolic (glucose, fructoseamine, total and HDL-cholesterol, triglycerides) and renal functional parameters from rat serum (sodium, potassium, creatinine, BUN, GFR and proteinuria) were determined with commercially available kits on a Hitachi 912 photometric chemistry analyzer. Random urine and 24-hour urine samples were also measured. Urinary protein to creatinine ratio was also calculated.

[6] = system: rat model of bleomycin-induced lung fibrosis; test: Rat model of bleomycin induced pulmonary fibrosis: αSMA protein in lung, western blot; format: in vivo; conditions: fluvoxamine 20 mg/bwkg/day, three weeks after bleomycin
Description: (Bars represent Mean±SEM, n=6/group).
For the induction of pulmonary fibrosis male Wistar rats were anesthetized. Bleomycin (5 mg/bwkg in a 300 μl solution of isotonic saline) or 300 μl isotonic saline was administered into the trachea using a 30G needle.
Animals were randomly divided into 4 groups of 6 rats each as follows (i)—control group was sham operated, received isotonic saline per os daily for 3 weeks, (ii) vehicle treated group: received isotonic saline per os daily for 3 weeks after the induction of lung fibrosis, (iii) fluvoxamine treated group: received fluvoxamine (20 mg/bwkg/day per os for 3 weeks after the induction of lung fibrosis), (iv) fluvoxamine+NE100 treated group: received fluvoxamine (20 mg/bwkg/day; per os) and 1 mg/bwkg/day NE100 (i.p. for 3 weeks after the induction of lung fibrosis. […]
Tissue samples were lysed in buffer containing leupeptin, aprotinin, Triton X-100, Tris-HCl, Ethylene glycol-bis (2-aminoethylether),N,N,N′,N′-tetraacetic-acid, NaF, Phenylmethylsulphonylfluoride and Na-orthovanadate (each substance were purchased from Sigma-Aldrich Co., St. Louis, Mo., USA) and centrifuged to pellet nuclei and large cellular fragments. Protein concentration of the supernatants was determined by Bradford assay (Bio-Rad Laboratories, Hercules, Calif., USA). […] Bands were analyzed with Quantity One software version 4.6.9. […]

[7] = system: mice with unilateral ureter obstruction (UUO); test: Mice model of unilateral ureteral obstruction (UUO): Masson's trichrome, tubulointerstitial fibrosis; format: in vivo; conditions: fluvoxamine 20 mg/bwkg/day for one week, 7 days after UUO
NRK49F cells = test: Cell viability MTT assay in myofibroblasts; format: cell-based, rat; conditions: 24-hours treatment, commonly used doses 1-10 μM
[8] = system: Streptozotocin induced type 1 diabetic rats; test: Diabetic rat kidney: Masson's trichrome staining, tubulointerstitial fibrosis; format: in vivo
[9] = system: FN1, COL1A1 and MMP2 mRNA in HTM-5 cells; test: Fibrotic marker mRNA expression in HTM-5 cells (RT-PCR); format: cell-based, human; conditions: normalised to RN18S
[10] = system: NRK49F rat kidney interstitial fibroblast cell lines; test: PDGFB-induced myofibroblast proliferation (MTT); format: cell-based; conditions: 10 ng/mL PDGFB, 24 hours, different concentrations of agonist
[11] = D7FLU: diabetic rats, fluvoxamine 20 mg/bwkg/day per os for 7 weeks
[12] = D+FLU2: diabetic rats, fluvoxamine 2 mg/bwkg/day per os for 2 weeks from the 5th week of diabetes
[13] = D+FLU: diabetic rats, fluvoxamine 20 mg/bwkg/day per os for 2 weeks from the 5th week of diabetes

COCCCC/C(=N\OCCN)c1ccc(C(F)(F)F)cc1 [fluvoxamine, 2-{[(E)-{5-Methoxy-1-[4-(trifluoromethyl)phenyl]pentylidene}amino]oxy}ethanamine]
diabetes induced excessive ECM accumulation (Sirius Red) [1]: significantly reduced | TGFβ-induced ECM production (Sirius Red) (NRK49F myofibroblasts): significantly inhibited TGFβ-induced ECM production | UUO-induced αSMA production in kidney [2]: successfully decreased UUO-induced αSMA production | extent of mesangial matrix expansion (PAS) ([3]; all doses of fluvoxamine): remarkably diminished | prevention of renal tissue damage (PAS), comparison of regimens ([3]; long-term (7-weeks) fluvoxamine treatment): most effective in preventing renal tissue damage | fibrotic lesion (fibronectin staining) versus diabetic rats [4]: smaller | Blood Creatinine [5, 11]: 27.0 ± 2.24 µmol/L | Blood Glucose [5, 11]: 50.31 ± 3.7 ^ mmol/L | Blood Urea Nitrogen [5, 11]: 17.3 ± 1.49 mmol/L | FeNa [5, 11]: 0.40 ± 0.03 % | Fructosamine [5, 11]: 276 ± 11.2 µmol/L | GFR [5, 11]: 6.77 ± 1.15 mL/min/100 g | Urinary albumin excretion [5, 11]: 20.8 ± 9.51 mg/mL | Blood Creatinine [5, 12]: 31.8 ± 2.94 µmol/L | Blood Glucose [5, 12]: 26.45 ± 3.11 mmol/L | Blood Urea Nitrogen [5, 12]: 18.8 ± 1.68 mmol/L | FeNa [5, 12]: 0.62 ± 0.12 % | Fructosamine [5, 12]: 242 ± 12.8^ μmol/L | GFR [5, 12]: 4.73 ± 0.69^ mL/min/100 g | Urinary albumin excretion [5, 12]: 24.3 ± 5.77^ mg/mL | Blood Creatinine [5, 13]: 34.5 ± 2.74 µmol/L | Blood Glucose [5, 13]: 36.6 ± 2.62 mmol/L | Blood Urea Nitrogen [5, 13]: 17.3 ± 2.30 mmol/L | FeNa [5, 13]: 0.90 ± 0.23 % | Fructosamine [5, 13]: 252 ± 18.5^ μmol/L | GFR [5, 13]: 3.73 ± 0.49^ mL/min/100 g | Urinary albumin excretion [5, 13]: 21.5 ± 4.99 mg/mL | renal function in diabetic rats ([5]; fluvoxamine treatment, specifically the long-term (7-weeks) treatment): remarkably improved renal function, prevented GFR decline | bleomycin-induced αSMA production in the lung [6]: successfully reduced bleomycin-induced αSMA production nearly to the level of controls | tubulointerstitial fibrosis after UUO (Masson's trichrome) [7]: decreased tubulointerstitial fibrosis | cytotoxicity / cell viability in myofibroblasts (NRK49F cells): not cytotoxic | diabetes induced tubulointerstitial fibrosis (Masson's trichrome) ([8]; fluvoxamine 20 mg 7 weeks, 20 mg 2 weeks, 2 mg 2 weeks per os): ameliorated the diabetes induced tubulointerstitial fibrosis | renal structure (Masson's trichrome) ([8]; long-term (7-weeks) fluvoxamine 20 mg/bwkg/day): restored almost the normal renal structure | COL1A1 (collagen1a1) mRNA expression ([9]; 20 ng/ml PDGF plus 5 μM FLU): inhibit the expression of each fibrosis marker tested in a dose dependent manner | FN1 (fibronectin) mRNA expression ([9]; 20 ng/ml PDGF plus 5 μM FLU): inhibit the expression of each fibrosis marker tested in a dose dependent manner | MMP2 (matrix metalloproteinase 2) mRNA expression ([9]; 20 ng/ml PDGF plus 10 μM FLU): inhibit the expression of each fibrosis marker tested in a dose dependent manner | PDGF-induced myofibroblast proliferation [10]: significantly decreased PDGF-induced myofibroblast proliferation
